Assay results from patent US20260234630A1, “Methods for Treating Multiple Myeloma” (Celgene Corporation, priority 2022, published 2026).

How the values were obtained:
UHRF1 = assay: Protein expression changes by mass spectrometry in H929 cells; assay type: cell-based; details: CC-220 0.1 μM, 24 hr vs DMSO
Description: FIG. 1A-1F. Down regulation of UHRF1 transcription by IMiDs correlates with drug sensitivity of multiple myeloma. (1A) Volcano plot of protein expression changes determined by mass spectrometry in H929 cells at 24 hr of treatment with CC-220 (0.1 μM) or DMSO control. X axis, Log2fold change (FC); Y axis, significance,-log 10 [p-value]. […] (1B) Volcano plot of gene expression changes determined by Affymetrix microarray in H929 cells treated with POM (1 μM) or DMSO for 24 hr. X axis, Log2fold change (FC); Y axis, significance,-log 10 [p-value], n=2 technical replicates). […] (1C) Western blot analysis protein expression of UHRF1, Ikaros, Aiolos and ZFP91 in H929 cells treated with 1 μM POM for indicated time. (1D) qRT-PCR analysis of UHRF1 gene expression levels in cells as in (1C). Error bars represent the SEM from duplicate measurements. (1E) Western blot analysis protein expression of UHRF1 and indicated proteins in MM cells treated with DMSO (−) or 1 μM POM (+) for 3 days. GAPDH serves as a loading control. (1F) Thymidine incorporation of various MM cell lines treated with indicated dose of POM for 3 days. Error bars represent the SEM from technical replicates. […]

UHRF1 mRNA = assay: qRT-PCR of UHRF1 gene expression in MM cells; assay type: cell-based; details: drug sensitive MM (FIG. 6 title)
Description: FIG. 1A-1F. Down regulation of UHRF1 transcription by IMiDs correlates with drug sensitivity of multiple myeloma. (1A) Volcano plot of protein expression changes determined by mass spectrometry in H929 cells at 24 hr of treatment with CC-220 (0.1 μM) or DMSO control. X axis, Log2fold change (FC); Y axis, significance,-log 10 [p-value]. […] (1B) Volcano plot of gene expression changes determined by Affymetrix microarray in H929 cells treated with POM (1 μM) or DMSO for 24 hr. X axis, Log2fold change (FC); Y axis, significance,-log 10 [p-value], n=2 technical replicates). […] (1C) Western blot analysis protein expression of UHRF1, Ikaros, Aiolos and ZFP91 in H929 cells treated with 1 μM POM for indicated time. (1D) qRT-PCR analysis of UHRF1 gene expression levels in cells as in (1C). Error bars represent the SEM from duplicate measurements. (1E) Western blot analysis protein expression of UHRF1 and indicated proteins in MM cells treated with DMSO (−) or 1 μM POM (+) for 3 days. GAPDH serves as a loading control. (1F) Thymidine incorporation of various MM cell lines treated with indicated dose of POM for 3 days. Error bars represent the SEM from technical replicates.
FIG. 2A-2E. UHRF1 expression is positively regulated by Ikaros and Aiolos in IMiDs sensitive MM cells. (2A) Western blot analysis protein expression of UHRF1, Ikaros, Aiolos, ZFP91 and Cereblon expression in control [shLuciferase (shLuc)] and cereblon knockdown (shCRBN) H929 cells treated with DMSO and 1 μM POM for 3 days. GAPDH, loading control. Arrow head, UHRF1. (2B) qRT-PCR analysis of UHRF1 gene expression levels in cells as in (2A). Data was normalized to ACTB. Error bars represent the SEM of technical duplicates. *** P<0.001 (Two-tailed unpaired Student's t-test). (2C) Western blot analysis protein expression of UHRF1, Ikaros and Aiolos in stably transduced H929 cells after Dox induction (0, 10, 50 or 100 ng/ml) for 3 days of non-target shRNA (shNT) or shRNAs targeting Ikaros (shIKZF1) or Aiolos (shIKZF3). (2D) qRT-PCR analysis of UHRF1 gene expression levels in cells as in (2C). Shown are cells induced with Dox (50 ng/ml) for 3 days. Data was normalized to GAPDH. Error bars represent the SEM of technical duplicates. *P<0.05, ** P<0.01, *** P<0.001, **** P<0.0001 (Two-tailed unpaired Student's t-test). (2E) ChIP-qPCR analysis of the occupancy Aiolos (upper panel) or H3K27ac (lower panel) occupancy at transcription star site (TSS), gene body (+7 kb) and gene end (GE) of UHRF1 gene in H929, MM1.S or RPMI 8226 cells treated with DMSO or 1 μM POM for 24 hr. ChIP with control rabbit IgG (IgG) serves as a negative control. Error bars represent the SEM of technical triplicates. * P<0.05, ** P<0.01, **** P<0.0001 (Two-tailed unpaired Student's t-test).
FIG. 6A-6D. […] (6A) Immunocytochemistry assay of UHRF1 in H929 cells treated with DMSO or 1 μM POM for 48 hrs. (6B) qRT-PCR analysis of UHRF1 gene expression levels in indicated MM cells treated with indicated doses of POM for 3 days. Data was normalized to ACTB. Error bars represent the SEM from duplicate measurements. * P<0.05, ** P<0.01, *** P<0.001, **** P<0.0001 (Two-tailed Student's t-test). […]
Total RNA was extracted by RNeasy Mini Kit (Qiagen) and reverse transcribed by iScrip cDNA Synthesis Kit (Bio-rad). Quantitative real-time PCR (qPCR) was conducted on a VillA 7 System using the Power SYBR Green PCR Master Mix (Applied Biosystems). Gene expression values were calculated by normalization to Actb using the comparative CT method.

[1] = tested on: acute myeloid leukemia (AML); details: administered alone; cited from earlier work

Row | Compound | UHRF1 protein expression change (mass spectrometry) (UHRF1) | UHRF1 gene expression (UHRF1 mRNA) | response in treating AML at relapse [1]
1 | O=C1CC[C@H](N2Cc3c(OCc4ccc(CN5CCOCC5)cc4)cccc3C2=O)C(=O)N1 [CC-220] | one of the most significantly downregulated proteins | downregulated | –
2 | CT-011: anti-PD-1 antibody, a humanized antibody | – | – | failed to show response
